Results: patent publication US20240076272A1, “Activators of Heme Regulated Inhibitor Kinase (HRI)” (The Brigham and Women`s Hospital, Inc., priority 2019, published 2024)
Where two headings read alike, the source gives them in different places.

Experiments:
[1] = tested on: CHOP; assay: Western blot, CHOP expression in CRL-2813 cells; type: cell-based, human; details: 5 μM, 8 hours, Western blot (FIG. 2B)
Method: FIGS. 2A-2B show HRI activators of the present application induce eIF2α phosphorylation and modify its downstream effectors. In FIG. 2A, CRL-2813 cells were treated with 5 μM of each compound for 2 hours, cell lysates were probed with phosphorylated (P-eIF2α) and total eIF2α (T-eIF2α) and β-actin specific antibodies. In FIG. 2B, CRL-2813 cells were treated with 5 μM HRI activators for 8 hours and lysates were immunoblotted with antibodies against CHOP, p27^KiPl, cyclin D1 and β-actin.
Cells cultured under recommended media conditions were plated and maintained in serum-containing media without antibiotics in 14-cm plates (Nunc) until reaching 70% confluence. Cells were then treated with compounds for 6 h, washed with cold PBS once, and lysed with M-PER Mammalian Protein Extraction Reagent (Pierce) for 30 min on ice. The cell lysates were centrifuged at 12,000 RPM for 15 min and the supernatants were transferred to fresh tubes and the concentrations were determined by BCA (Pierce). Equal amount of proteins were mixed with Laemmli Sample Buffer, heated at 100° C. for 5 min, separated by SDS-PAGE, and probed with anti-phosphoserine-51-eIF2α (Phos-eIF2α), anti-total eIF2α-specific antibodies (Total-eIF2α) (Biosource International, Hopkinton, MA), anti-CHOP, anti-cyclin D1 or anti-actin (Santa Cruz Biotechnology, CA) using procedures substantially similar to previous reports (see e.g., Aktas et al, Mol. Cell. Biol. 17 (1997) 3850-3857).
Endogenous eIF2α is the best-known substrate of HRI and the upstream regulator of the eIF2·GTP·Met-tRNAi ternary complex abundance, while CHOP expression is a downstream effector of eIF2α phosphorylation. For assessing eIF2α phosphorylation, blotted cell lysates were treated for two hours with vehicle or selected compounds using antibodies specific for the total-eIF2α and the phosphorylated-eIF2α (T-eIF2α and [PhoS^51]-eIF2α), respectively (see e.g., Aktas et al, J. Nutr. 134 (2004) 2487S-2491S) (see FIG. 2A).

[2] = tested on: human melanoma CRL-2813 cells; assay: sulforhodamine B (SRB) cell proliferation assay; type: cell-based; details: 5 days, read-out: IC50 (concentration that inhibits growth of human melanoma CRL-2813 cells by 50%)
Method: Cells were seeded in 96-well plates and maintained for 5 days in the presence of 0.5 μM to 20 μM of individual compound, and cell proliferation was measured by the sulforhodamine B (SRB) assay according to previous reports (see e.g., Palakurthi et al, Cancer Res. 60 (2000) 2919-2925): briefly, at the end of a 5-day treatment, cells were fixed in 10% cold trichloroacetic acid. Cell number was estimated by measuring the remaining bound dye of sulforhodamine B after washing. The percentage of growth was calculated by using the equation: 100×[(T-T0)/(C-T0)], where T and C represent the absorbance in treated and control cultures at Day 5, and T0 at time zero, respectively. If T was less than T0, cell death had occurred and was calculated from 100×[(T-T0)/T0].
All 4-CF3-ΦOcAlkΦUs were tested in the sulforhodamine B (SRB) cell proliferation assay to establish the concentrations that inhibit human melanoma CRL-2813 cells growth by 50% (IC50) (see Table 1). This activity reflects a combined effect of membrane permeability and overall anti-proliferative effects that include on target and off-target effects.

Structure (SMILES) | expression of CHOP relative to DMSO [1] | IC50 ([2]; Homo sapiens, CRL2813, 120 h) [nM] | IC50 [2] [nM]
N#Cc1cc(NC(=O)N[C@H]2C[C@H](Oc3ccc(C(F)(F)F)cc3)C2)cc(C(F)(F)F)c1 [Compound 1-IV, 1-(3-Cyano-5-(trifluoromethyl)phenyl)-3-(trans-3-(4-(trifluoromethyl)phenoxy)cyclobutyl)urea] | increased the expression of CHOP | 900 | 
N#Cc1cc(NC(=O)N[C@H]2CC[C@H](Oc3ccc(C(F)(F)F)cc3)CC2)cc(C(F)(F)F)c1 [Compound 1-VI, 1-(3-cyano-5-trifluoromethyl) phenyl-3-(trans-4-(4-(trifluoromethyl)phenoxy)cyclohexyl)urea, reference compound] | increased the expression of CHOP |  | 350
N#Cc1ccc(NC(=O)N[C@H]2CC[C@H](Oc3ccc(C(F)(F)F)cc3)CC2)cc1F [Compound 5-VI, 1-(4-Cyano-3-fluorophenyl)-3-(trans-4-(4-(trifluoromethyl)phenoxy)cyclohexyl)urea] | increased the expression of CHOP | 460 | 
N#Cc1cc(F)cc(NC(=O)N[C@H]2CC[C@H](Oc3ccc(C(F)(F)F)cc3)CC2)c1 [Compound 4-VI, 1-(3-Cyano-5-fluorophenyl)-3-(trans-4-(4-(trifluoromethyl)phenoxy)cyclohexyl)urea] | increased the expression of CHOP |  | 630 ± 300
